Our source for the IC50 and remaining activity % values is PubChem BioAssay AID652282 (Vanderbilt Specialized Chemistry Center, 2013).

Activity calls are given as the source filed them. How the calls were made is not given here.

For test [1], the system named is BMP4-induced signaling reporter cell assay. As to the kind of experiment: BMP4 signaling inhibitors, SAR follow-up, reporter cells (AID 652282).
Experiment in test [2]: as above
The following applies: BMP4-induced signaling reporter cell assay; at 10 µM (top of the series).

One may read the IC50 as the concentration at which inhibition is half-maximal. Turning to `Clc1cc(-c2cnn3cc(-c4ccc(N5CCOCC5)cc4)cnc23)ccn1`, the 50% inhibitory concentration (IC50) in test [1] was 0.609 µM.

Take `COc1ccc(-c2cnc3c(-c4ccnc5ccccc45)cnn3c2)cc1`: in test [2], the remaining activity % was -16.3.

On to `c1ccc2c(-c3cnn4cc(-c5ccc(N6CCNCC6)cc5)cnc34)csc2c1`, for which, in test [1], the 50% inhibitory concentration (IC50) was 0.225 µM.

For the molecule `c1ccc2c(-c3cnn4cc(-c5ccc(N6CCOCC6)cc5)cnc34)ccnc2c1`, in test [2], the remaining activity % was -11.

As to `c1ccc2c(-c3cnn4cc(-c5ccc(N6CCOCC6)cc5)cnc34)csc2c1`, the concentration for half-maximal inhibition (IC50) in test [1] was 0.274 µM.

With `c1cc(N2CCNCC2)ccc1-c1cnc2c(-c3cn[nH]c3)cnn2c1`, the remaining activity % in test [2] is -11.7.

As for `COc1ccc(-c2cnc3c(-c4cccc5ncccc45)cnn3c2)cc1`, the half-maximal inhibitory concentration (IC50) in test [1] is 0.152 µM.

As for `COc1ccc(-c2cnc3c(-c4cncc5ccccc45)cnn3c2)cc1`, in test [1], the IC50 was 4.9 µM.

For the molecule `COc1ccc(-c2cnc3c(-c4cccc5cccnc45)cnn3c2)cc1`, the IC50 in test [1] was 6.7 µM (inactive).

Take `COc1ccc(-c2cnc3c(-c4ccnc5ncccc45)cnn3c2)cc1`: the IC50 in test [1] was 0.038 µM.

On to `Clc1cc(-c2cnn3cc(-c4ccc(N5CCNCC5)cc4)cnc23)ccn1`, for which, in test [1], the IC50 was 0.27 µM.

With `COc1ccc(-c2cnc3c(-c4ccnc5ccsc45)cnn3c2)cc1`, the IC50 in test [1] is 4.5 µM.

Consider `c1cc(N2CCOCC2)ccc1-c1cnc2c(-c3cn[nH]c3)cnn2c1`, for which the IC50 in test [1] is 0.172 µM.
